# Laboratory results taken from article PMC10547238, “Discovery of Potent Tetrazole Free Fatty Acid Receptor 2 Antagonists” (Journal of Medicinal Chemistry, 2023).
# What was measured:
# [1] = Chemical stability in PBS7.4; type: physicochemical
# Protocol: Duplicates of 1 mL of a 50 μM solution were prepared by adding the 10 mM stock solution to a 1.5 mL Eppendorf tube and diluting it with PBS7.4. The Eppendorf tubes were incubated at 37 °C with gentle shaking (650 rpm) using an Eppendorf Thermomixer. The samples were briefly vortexed, and 50 μL aliquots were withdrawn at the time points 0, 12, 48, etc.; added to 250 μL vials; and analyzed immediately by HPLC. The chemical stability in PBS7.4 was determined at every time point in percentage relative to the 0 h time point.
# Microsomal stability = type: in vitro ADME, mouse
# Protocol: The assay was performed in duplicates essentially as described previously,[58] using male CD1 mouse liver microsomes (Thermo Fischer Scientific, 20 mg/mL), NADPH-regenerating agent Solution A and Solution B (Promega), potassium phosphate buffer (100 mM, pH 7.4), and test compounds (1 mM, diluted from 10 mM DMSO stock in the buffer). The samples were analyzed in an Agilent 6130 Mass Spectrometer instrument using electron spray ionization (ESI) coupled to an Agilent 1200 HPLC system (ESI-LCMS) with a C18 reverse phase column (Zorbax Eclipse XBD-C18, 4.6 mm × 50 mm) using a linear gradient of the binary solvent system of 100% mobile phase A (water:MeCN:formic acid, 95:5:0.1 v/v%) to 100% mobile phase B (MeCN:formic acid, 100:0.1 v/v %) in 6 min, with a flow rate of 1 mL/min.
# To a pre-warmed solution of potassium phosphate buffer (135.6 μL) in an Eppendorf tube at 37 °C were added Solution A (7.5 μL), Solution B (1.5 μL), microsomes (3.9 μL), and the test compound (1 mM, 1.5 μL, final concentration = 10 μM). The tube was briefly vortexed and incubated at 37 °C in a thermomixer. At 0, 15, 30, 45, and 60 min, 25 μL of each sample was transferred to an ice-cold solution containing an internal standard (5 μM in MeCN, 12.5 μL). The sample was briefly vortexed and centrifuged for 5 min at 10.000g. The supernatant (25 μL) was transferred to HPLC vial and analyzed by ESI-LCMS in single ion mode. The data was analyzed using GraphPad Prism (version 9).
# hFFA3 = target: T1, hFFA3 (Homo sapiens, UniProt O14843); experiment: cAMP assay, Flp-In T-Rex 293 cells expressing hFFA3-eYFP; type: cell-based; details: at 10 μM
# T1 construct: expressed in transfected cells; host or cells: Flp-In T-Rex 293 cells, doxycycline-induced
# T1 sequence (O14843 1-346): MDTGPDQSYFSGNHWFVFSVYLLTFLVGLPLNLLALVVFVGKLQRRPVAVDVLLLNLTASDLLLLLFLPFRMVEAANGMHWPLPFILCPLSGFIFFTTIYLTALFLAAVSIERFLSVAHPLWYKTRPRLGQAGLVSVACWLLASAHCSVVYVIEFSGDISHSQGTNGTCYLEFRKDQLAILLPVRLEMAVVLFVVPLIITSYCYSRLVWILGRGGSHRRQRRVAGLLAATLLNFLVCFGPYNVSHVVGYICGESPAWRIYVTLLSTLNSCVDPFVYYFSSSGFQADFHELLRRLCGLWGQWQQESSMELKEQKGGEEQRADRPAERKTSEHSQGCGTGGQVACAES
# Protocol: The hFFA2-eYFP and hFFA3-eYFP Flp-In T-Rex 293 cell lines were maintained in Dulbecco’s modified Eagle mMedium (DMEM, ThermoFisher #11965092) supplemented with 10% (v/v) fetal bovine serum, 100 U/mL penicillin, 100 μg/mL streptomycin, 5 μg/mL blasticidin S, and 200 μg/mL hygromycin B and incubated at 37 °C and 5% CO2 in a humidified incubator. Cells were passaged at 70–80% confluency.
# To determine the compound’s ability to activate or inhibit the Gi-coupled FFA2 or FFA3, intracellular cAMP concentrations were determined using Flp-In T-Rex293 cells induced to express hFFA2-eYFP or hFFA3-eYFP. […]
# In agonist mode, the next day, the agonist was added in Hank’s balanced salt solution supplemented with 20 mM HEPES, 1 mM MgCl2, and 1 mM CaCl2 at pH 7.4 (HBSS) together with 50 μM 3-isobutyl-1-methylxanthine (IBMX) and 3 μM forskolin. After 25 min pf incubation at rt, agonist-induced intracellular cAMP production was assessed by stopping the reactions and measuring the output with an Envision plate reader using a time-resolved fluorescence protocol, measuring the light emission at 620 and 665 nm.
# In antagonist mode, the cells were pre-incubated for 20 min with antagonist test compounds in HBSS together with 50 μM IBMX at rt. […] All analyses were performed in triplicate and analyzed using GraphPad Prism (version 9).
# [2] = remaining, PBS7.4 at 37 °C, 10 days
# [3] = % recovered after 60 min, mouse liver microsomes
"chemical stability [1, 2]",microsomal stability (Microsomal stability; [3]),chemical stability ([1]; supplementary CSV),in vitro clearance (Microsomal stability; mouse liver microsomes),microsomal stability (Microsomal stability; supplementary CSV),activity on FFA3 (hFFA3),Compound
90%,91%,,,,,"O=C(O)C[C@H](Cc1ccc(C(F)(F)F)cc1)NC(=O)Cc1cccc(Cl)c1 [Compound 3, reference compound]"
>95%,93%,>95%,low in vitro clearance,93%,devoid of activity,"COc1cccc(CC(=O)N[C@@H](Cc2ccc(C(F)(F)F)cc2)Cc2nnn[nH]2)c1 [Compound 16l, (S)-N-(1-(1H-Tetrazol-5-yl)-3-(4-(trifluoromethyl)phenyl)propan-2-yl)-2-(3-methoxyphenyl)acetamide]"
>95%,92%,>95%,low in vitro clearance,92%,devoid of activity,"O=C(Cc1cncc(Br)c1)N[C@@H](Cc1ccc(C(F)(F)F)cc1)Cc1nnn[nH]1 [Compound 16w, (S)-3-(2-((1-(1H-Tetrazol-5-yl)-3-(4-(trifluoromethyl)phenyl)propan-2-yl)amino)-2-oxoethyl)-5-bromopyridin-1-ium 2,2,2-trifluoroacetate]"
